Test results as given in US20110081315A1, “NOVEL MACROCYCLIC INHIBITORS OF HEPATITIS C VIRUS REPLICATION” (INTERMUNE, INC., priority 2009, published 2011).

Assays:
NS3/NS4 complexes = NS3/NS4 complexes (Hepatitis C virus genotype 1a, UniProt P27958); test: NS3/NS4 inhibition assay (IC50); format: biochemical; conditions: NS3/NS4 activity; 23° C., 25 μM NS4A peptide
Summary of the method: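 Inhibitory concentrations against the NS3/NS4 complex are determined at 23° C. in pH 7.5 buffer (50 mM Tris-HCl) containing 25 μM NS4A peptide, 0.6 mM lauryldimethylamine oxide, 10 mM dithiothreitol and 15% glycerol. EC50 values derive from the hepatitis C replicon assay.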

hepatitis C replicon = hepatitis C replicon EC50 assay; format: cell-based; conditions: Hepatitis C virus; hepatitis C replicon; read-out: EC50
Summary of the method: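 Buffer: 50 mM Tris-HCl pH 7.5, 15% glycerol, 0.6 mM LDAO, 25 μM NS4A peptide, 10 mM DTT, at 23° C. (ambient). EC50 follows a referenced published replicon protocol.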

Sequence of NS3/NS4 complexes (P27958 1027-1657, one chain of several): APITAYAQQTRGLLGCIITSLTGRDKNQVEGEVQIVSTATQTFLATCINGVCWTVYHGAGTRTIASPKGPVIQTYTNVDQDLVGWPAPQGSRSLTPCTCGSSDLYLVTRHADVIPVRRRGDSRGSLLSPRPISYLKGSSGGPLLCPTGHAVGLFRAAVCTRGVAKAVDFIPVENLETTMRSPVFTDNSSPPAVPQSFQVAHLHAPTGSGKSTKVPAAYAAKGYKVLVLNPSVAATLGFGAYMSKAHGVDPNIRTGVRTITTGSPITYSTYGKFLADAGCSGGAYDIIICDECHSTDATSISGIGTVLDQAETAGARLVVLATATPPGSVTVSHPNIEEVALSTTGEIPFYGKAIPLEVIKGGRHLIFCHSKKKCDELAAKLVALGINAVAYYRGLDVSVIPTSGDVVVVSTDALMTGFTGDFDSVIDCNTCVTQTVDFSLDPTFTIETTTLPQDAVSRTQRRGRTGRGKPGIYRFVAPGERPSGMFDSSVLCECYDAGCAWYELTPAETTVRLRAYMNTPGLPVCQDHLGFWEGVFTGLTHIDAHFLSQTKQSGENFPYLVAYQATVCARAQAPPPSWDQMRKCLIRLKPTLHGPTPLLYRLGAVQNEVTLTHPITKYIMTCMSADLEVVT

Compound | IC50 (NS3/NS4 complexes) [nM] | EC50 (hepatitis C replicon) [nM]
CC(C)n1c(O[C@@H]2C[C@H]3C(=O)N[C@]4(C(=O)NS(=O)(=O)C5(C)CC5)C[C@H]4/C=C\CCCCC[C@H](Nc4ccccc4)C(=O)N3C2)nc2c(-c3ccoc3)cccc21 [Compound 252] | < 10 | 10 to 100
CC(C)NC(=O)c1cccc2c1nc(O[C@@H]1C[C@H]3C(=O)N[C@]4(C(=O)NS(=O)(=O)C5(C)CC5)C[C@H]4/C=C\CCCCC[C@H](Nc4ccccc4)C(=O)N3C1)n2C(C)C [Compound 272] | < 10 | 10 to 100
CCCN1CCN(C(=O)c2cccc(N[C@H]3CCCCC/C=C\[C@@H]4C[C@@]4(C(=O)NS(=O)(=O)C4(C)CC4)NC(=O)[C@@H]4C[C@@H](Oc5cc(-c6nc(C(C)C)cs6)nc6c(C)c(OC)ccc56)CN4C3=O)c2)CC1 [Compound 113] | < 10 | < 10
COc1ccc2c(O[C@@H]3C[C@H]4C(=O)N[C@]5(C(=O)NS(=O)(=O)C6(C)CC6)C[C@H]5/C=C\CCCCC[C@H](Nc5cccc(C(=O)N6CCN(CCO)CC6)c5)C(=O)N4C3)cc(-c3nc(C(C)C)cs3)nc2c1C [Compound 117] | < 10 | < 10
CC(C)n1c(O[C@@H]2C[C@H]3C(=O)N[C@]4(C(=O)NS(=O)(=O)C5(C)CC5)C[C@H]4/C=C\CCCCC[C@H](NC(=O)N4CCCC4)C(=O)N3C2)nc2c(-c3nc(-c4ccccc4)cs3)cccc21 [Compound 1732] | < 10 | < 10
CC(C)n1c(O[C@@H]2C[C@H]3C(=O)N[C@]4(C(=O)NS(=O)(=O)N(C)C)C[C@H]4/C=C\CCCCC[C@H](NC(=O)OC(C)(C)C)C(=O)N3C2)nc2c(-c3nc4c(s3)CCCC4(C)C)cccc21 [Compound 1775] | < 10 | 10 to 100
CC(C)n1c(O[C@@H]2C[C@H]3C(=O)N[C@]4(C(=O)O)C[C@H]4/C=C\CCCCC[C@H](NC(=O)OC(C)(C)C)C(=O)N3C2)nc2ccccc21 [Compound 208] | < 10 | > 100
Cc1oc(-c2cccc3c2nc(O[C@@H]2C[C@H]4C(=O)N[C@]5(C(=O)NS(=O)(=O)N(C)C)C[C@H]5/C=C\CCCCC[C@H](NC(=O)OC(C)(C)C)C(=O)N4C2)n3C(C)C)nc1C(C)(C)C [Compound 1205] | < 10 | < 10
CN(C)S(=O)(=O)NC(=O)[C@@]12C[C@H]1/C=C\CCCCC[C@H](NC(=O)OC(C)(C)C)C(=O)N1C[C@H](Oc3cnc4ccccc4n3)C[C@H]1C(=O)N2 [Compound 301] | < 10 | 10 to 100
CC(C)n1c(O[C@@H]2C[C@H]3C(=O)N[C@]4(C(=O)NS(=O)(=O)C5(C)CC5)C[C@H]4/C=C\CCCCC[C@H](NC(=O)OC4CCCC4)C(=O)N3C2)nc2c(-c3nc(-c4ccccc4)cs3)cccc21 [Compound 1730] | < 10 | < 10
CC(C)(C)OC(=O)N[C@H]1CCCCC/C=C\[C@@H]2C[C@@]2(C(=O)NS(=O)(=O)C2(C)CC2)NC(=O)[C@@H]2C[C@@H](n3nnc(-c4ccccc4)n3)CN2C1=O [Compound 801] | < 10 | 10 to 100
Cc1ccc(-c2csc(-c3cccc4c3nc(O[C@@H]3C[C@H]5C(=O)N[C@]6(C(=O)NS(=O)(=O)C7(C)CC7)C[C@H]6/C=C\CCCCC[C@H](NC(=O)OC(C)(C)C)C(=O)N5C3)n4C(C)C)n2)c(C)c1 [Compound 1717] | < 10 | 10 to 100
COc1ccc2c(O[C@@H]3C[C@H]4C(=O)N[C@]5(C(=O)NS(=O)(=O)C6(C)CC6)C[C@H]5/C=C\CCCCC[C@H](Nc5cccc(F)c5)C(=O)N4C3)nc(-c3nc(C(C)C)cs3)cc2c1 [Compound 1004] | < 10 | 10 to 100
CC(C)n1c(O[C@@H]2C[C@H]3C(=O)N[C@]4(C(=O)NS(=O)(=O)C5(C)CC5)C[C@H]4/C=C\CCCCC[C@H](NC(=O)OC(C)(C)C)C(=O)N3C2)nc2c(-c3nc(Cc4ccc(F)cc4)cs3)cccc21 [Compound 1726] | < 10 | < 10
CC(C)c1nc(-c2cccc3c2nc(O[C@@H]2C[C@H]4C(=O)N[C@]5(C(=O)NS(=O)(=O)C6(C)CC6)C[C@H]5/C=C\CCCCC[C@H](NC(=O)OC(C)(C)C)C(=O)N4C2)n3C(C)C)sc1C(C)C [Compound 1213] | < 10 | 10 to 100
CCc1nc2ccccc2nc1O[C@@H]1C[C@H]2C(=O)N[C@]3(C(=O)NS(=O)(=O)C4(C)CC4)C[C@H]3/C=C\CCCCC[C@H](Nc3ccccc3)C(=O)N2C1 [Compound 312] | < 10 | 10 to 100

Compound | IC50 (NS3/NS4 complexes) [nM] | EC50 (hepatitis C replicon) [nM]
CC(C)n1c(O[C@@H]2C[C@H]3C(=O)N[C@]4(C(=O)NS(=O)(=O)C5(C)CC5)C[C@H]4/C=C\CCCCC[C@H](NC(=O)OC(C)(C)C)C(=O)N3C2)nc2c(-c3nc(-c4ccccc4Cl)cs3)cccc21 [Compound 1714] | < 10 | 10 to 100
CC(C)n1c(O[C@@H]2C[C@H]3C(=O)N[C@]4(C(=O)NS(=O)(=O)N(C)C)C[C@H]4/C=C\CCCCC[C@H](NC(=O)OC(C)(C)C)C(=O)N3C2)nc2c(NC(=O)OCCc3ccccc3)cccc21 [Compound 1429] | < 10 | < 10
CC(C)n1c(O[C@@H]2C[C@H]3C(=O)N[C@]4(C(=O)NS(=O)(=O)C5(C)CC5)C[C@H]4/C=C\CCCCC[C@H](NC(=O)OC(C)(C)C)C(=O)N3C2)nc2c(NS(=O)(=O)Cc3ccccc3)cccc21 [Compound 1401] | < 10 | < 10
COc1ccc(-c2nnn([C@@H]3C[C@H]4C(=O)N[C@]5(C(=O)NS(=O)(=O)C6(C)CC6)C[C@H]5/C=C\CCCCC[C@H](Nc5ccccc5)C(=O)N4C3)n2)cc1 [Compound 804] | < 10 | 10 to 100
COc1ccc2c(O[C@@H]3C[C@H]4C(=O)N[C@]5(C(=O)NS(=O)(=O)C6(C)CC6)C[C@H]5/C=C\CCCCC[C@H](Nc5ccc(OC(F)(F)F)c(F)c5)C(=O)N4C3)cc(-c3nc(C(C)C)cs3)nc2c1C (single isomer, unassigned) [Compound 602] | < 10 | 10 to 100
CC(C)n1c(O[C@@H]2C[C@H]3C(=O)N[C@]4(C(=O)NS(=O)(=O)C5CC5)C[C@H]4/C=C\CCCCC[C@H](NC(=O)OC(C)(C)C)C(=O)N3C2)nc2c(-c3nc(C4CCCC4)cs3)cccc21 [Compound 1434] | < 10 | < 10
COc1ccc2c(O[C@@H]3C[C@H]4C(=O)N[C@]5(C(=O)NS(=O)(=O)C6(C)CC6)C[C@H]5/C=C\CCCCC[C@H](Nc5cccc(C(=O)N6CCN(C(C)c7ccccc7)CC6)c5)C(=O)N4C3)cc(-c3nc(C(C)C)cs3)nc2c1C (stereo partly shown) [Compound 116] | < 10 | 10 to 100
CC(C)n1c(O[C@@H]2C[C@H]3C(=O)N[C@]4(C(=O)NS(=O)(=O)C5(C)CC5)C[C@H]4/C=C\CCCCC[C@H](NC(=O)OC(C)(C)C)C(=O)N3C2)nc2c(-c3nc(-c4ccccc4)cs3)cccc21 [Compound 1708] | < 10 | < 10
Cc1csc(-c2cccc3c2nc(O[C@@H]2C[C@H]4C(=O)N[C@]5(C(=O)NS(=O)(=O)N(C)C)C[C@H]5/C=C\CCCCC[C@H](NC(=O)OC(C)(C)C)C(=O)N4C2)n3C(C)C)n1 [Compound 228] | < 10 | < 10
CC(C)(C)OC(=O)N[C@H]1CCCCC/C=C\[C@@H]2C[C@@]2(C(=O)NS(=O)(=O)C2CC2)NC(=O)[C@@H]2C[C@@H](Oc3ncc4ncn(Cc5ccccc5)c4n3)CN2C1=O [Compound 506] | < 10 | > 100
Cc1ccc(-c2csc(-c3cccc4c3nc(O[C@@H]3C[C@H]5C(=O)N[C@]6(C(=O)NS(=O)(=O)N(C)C)C[C@H]6/C=C\CCCCC[C@H](NC(=O)OC(C)(C)C)C(=O)N5C3)n4C(C)C)n2)c(C)c1 [Compound 1754] | < 10 | 10 to 100
CC(C)c1nc(-c2cccc3c2nc(O[C@@H]2C[C@H]4C(=O)N[C@]5(C(=O)NS(=O)(=O)C6(C)CC6)C[C@H]5/C=C\CCCCC[C@H](NC(=O)OC(C)(C)C)C(=O)N4C2)n3C(C)C)oc1C(C)C [Compound 1212] | < 10 | < 10
COc1ccc(-c2nn([C@@H]3C[C@H]4C(=O)N[C@]5(C(=O)NS(=O)(=O)C6(C)CC6)C[C@H]5/C=C\CCCCC[C@H](Nc5ccccc5)C(=O)N4C3)nc2-c2nccs2)cc1 [Compound 1506] | < 10 | 10 to 100
CC(C)c1csc(NC(=O)c2cccc3c2nc(O[C@@H]2C[C@H]4C(=O)N[C@]5(C(=O)NS(=O)(=O)N(C)C)C[C@H]5/C=C\CCCCC[C@H](NC(=O)OC(C)(C)C)C(=O)N4C2)n3C(C)C)n1 [Compound 1221] | < 10 | < 10
CC(C)NC(=O)c1cccc2c1nc(O[C@@H]1C[C@H]3C(=O)N[C@]4(C(=O)NS(=O)(=O)N(C)C)C[C@H]4/C=C\CCCCC[C@H](NC(=O)OC(C)(C)C)C(=O)N3C1)n2C(C)C [Compound 281] | < 10 | < 10
CC(C)n1c(O[C@@H]2C[C@H]3C(=O)N[C@]4(C(=O)NS(=O)(=O)C5(C)CC5)C[C@H]4/C=C\CCCCC[C@H](Nc4ccccc4)C(=O)N3C2)nc2c(-c3ccc(F)cc3)cccc21 [Compound 238] | < 10 | 10 to 100
